Legend:
NCI-N87 cells = test: Annexin V-PE/7-AAD apoptosis assay (flow cytometry), NCI-N87; type: cell-based, human; details: 1000 nM, 24 h
Method: Apoptosis was measured by staining with phycoerythrin (PE)-annexin V and 7-amino-actinomycin (7-AAD) (BD Biosciences, Erembodegem, Belgium) for 15 min at room temperature in the dark, followed by flow cytometry (BD Biosciences) within 1 h. Apoptosis was analyzed with FlowJo 7.6 software (FlowJo, LLC, Ashland, Oregon).
Cells were treated with gimatecan (0–1 µM) and irinotecan (0–1 µM) for 24 h and stained with Annexin V-PE/7-AAD. Sums of percentages of early apoptosis (Q3) and late apoptosis (Q2) were calculated as the total apoptosis ratios. c, d Pro- and anti-apoptotic proteins including Bcl-2, Bak, PARP and cleaved PARP were assessed by western-blotting in SNU-1 and NCI-N87 cells. Western-blotting bands were quantified and normalized by ImageJ. […] They are left out because no substance is present, and they are also barely readable.

ABCG2 = tested on: ABCG2; parameters: method as in earlier work; details: ref 32 (Marchetti et al., 2007); cited from earlier work

CC[C@@]1(O)C(=O)OCc2c1cc1n(c2=O)Cc2c-1nc1ccccc1c2/C=N/OC(C)(C)C [Gimatecan, 7-t-butoxyiminomethylcamptothecin]
proportion of apoptotic cells (NCI-N87 cells): 12.29 ± 2.24%
resistance resulting from ABCG2 expression (ABCG2): eight to tenfold

Reference: publication PMC5729429, “Gimatecan exerts potent antitumor activity against gastric cancer in vitro and in vivo via AKT and MAPK signaling pathways” (Journal of Translational Medicine, 2017)
